Data reported in paper PMC3711802 (IUBMB life, 2012).
Like-named read-outs stand apart in the source and are kept apart here.

Experiments:
[1] = tested on: EGFR; settings: cited from earlier work
[2] = target: EGFR (Homo sapiens, UniProt P00533); experiment: Displacement of bound [^125I]-EGF in A431 cells; format: binding
[3] = tested on: A431 subcutaneous xenografts; experiment: Treatment of subcutaneous A431 xenografts in nude mice; format: in vivo, human; settings: EGFR over-expressing cancers
[4] = tested on: EGFR expressing cells; settings: in vitro and in vivo, cited from earlier work
[5] = tested on: EGFR; settings: ref [8] Li et al., cited from earlier work

Substance: EGF: Recombinant human EGF (hEGF, Peprotech Asia)
- EGFR activation upon binding ([1]; ref [20]): activates the kinase moiety of the receptor

Substance: Polyethyleneimine-polyetheleneglycol-EGF [PP-EGF]
- enhancement of potency by complexation with PolyIC ([2]; [^125I]-EGF displacement, PolyIC complex vs uncomplexed conjugate): approximately 10 fold
- in vitro and in vivo efficacy of both vectors in PolyIC treatment [3]: in vitro and in vivo efficacies of both vectors are comparable

Substance: Polyethyleneimine-polyetheleneglycol-GE11 [PPGE11]
- EGFR-binding affinity/inhibitory potency compared to GE11 ([2]; vs free GE11): much more potent EGFR binder as compared to GE11
- gene delivery into EGFR expressing cells ([4]; ref [9],[10],[16]): effective and specific gene delivery into EGFR expressing cells
- targeting of EGFR over-expressing tumors ([4]; ref [9],[10]): enabled the targeting of EGFR over-expressing tumors in vitro and in vivo
- in vitro and in vivo efficacy of both vectors in PolyIC treatment [3]: in vitro and in vivo efficacies of both vectors are comparable

Substance: YHWYGYTPQNVI [GE11]
- affinity to the EGFR (in words) ([5]; as a free ligand): high affinity
- affinity to the EGFR ([5]; free ligand): ~ 22 nM
- EGFR activation ([1]; as previously shown by us, ref [9],[10]): does not activate the receptor
- EGFR activation ([1]; ref [8]): does not activate the EGFR
- EGFR activation ([1]; ref [9],[10]): without EGFR activation
